Measured values published in article PMC6934184, “Selective DNA-PKcs inhibition extends the therapeutic index of localized radiotherapy and chemotherapy” (The Journal of Clinical Investigation, 2019).

Target: T1, CDK3/cyclin E1 (Homo sapiens, UniProt Q00526)
T1 construct: purchased Thermo Fisher Scientific (Life Technologies) SelectScreen
Assay: SelectScreen LanthaScreen
Format: binding
Conditions: 1 µM
Summary of the method: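 Percent values come from Thermo SelectScreen profiling of NU5455, combining activity and binding assays. CSF1R was run in Z'LYTE format at Km app ATP, and CAMK1 in Adapta format with ATP listed at 10.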

T1 sequence (Q00526 whole entry): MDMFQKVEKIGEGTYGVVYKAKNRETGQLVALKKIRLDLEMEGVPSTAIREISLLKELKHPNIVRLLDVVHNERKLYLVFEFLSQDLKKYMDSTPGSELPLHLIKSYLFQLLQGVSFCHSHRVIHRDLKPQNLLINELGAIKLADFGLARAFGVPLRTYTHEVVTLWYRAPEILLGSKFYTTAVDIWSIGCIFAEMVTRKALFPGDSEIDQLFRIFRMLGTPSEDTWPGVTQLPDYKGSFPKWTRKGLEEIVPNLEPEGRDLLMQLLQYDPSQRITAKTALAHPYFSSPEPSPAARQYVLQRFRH
T1 sequence (P24864 whole entry partner): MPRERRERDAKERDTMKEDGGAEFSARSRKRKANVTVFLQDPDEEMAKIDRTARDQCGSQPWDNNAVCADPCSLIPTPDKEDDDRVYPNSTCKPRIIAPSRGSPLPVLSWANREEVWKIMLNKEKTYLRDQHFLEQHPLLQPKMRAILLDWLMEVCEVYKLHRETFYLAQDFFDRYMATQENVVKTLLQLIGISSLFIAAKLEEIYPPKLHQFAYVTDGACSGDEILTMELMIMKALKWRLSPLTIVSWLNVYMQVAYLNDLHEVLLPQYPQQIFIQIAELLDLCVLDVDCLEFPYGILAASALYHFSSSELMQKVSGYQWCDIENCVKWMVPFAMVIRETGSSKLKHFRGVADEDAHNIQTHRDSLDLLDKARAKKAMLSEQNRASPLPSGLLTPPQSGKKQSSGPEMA

Compound: CN(C(=O)CN1CCOCC1)c1ccc2sc3c(-c4cccc5c(=O)cc(N6CC7CCC(C6)O7)oc45)cccc3c2c1 [NU5455]
- % displacement: 1.9%
